Results published in the supplement of paper PMC11061612.

Tests used:
[1] = tested on: AN3-CA (Endometrial Carcinoma); assay: Bliss excess, mean over the matrix (fraction); higher = more synergy
In short: (§1)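 Cell lines in DMEM/F12 or RPMI with 10% FBS were plated in 1536-well plates, held 24 hours at 37°C, 5% CO2, then given two-drug dose matrices for 72 hours (DMSO typically 0.2%). Viability was read by CellTiter-Glo 2.0 luminescence and scaled as inhibition from 0 (vehicle wells) to 1 (blank wells). Combination Emax is the second-highest inhibition in the matrix; Bliss excess is observed combination effect minus expected EA + EB − EA·EB, EA and EB being single-agent effects.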

CHL-1 (Melanoma) = assay: as above
In short: as §1

[2] = tested on: CML-T1 (Chronic Myelogenous Leukemia); assay: as above
In short: as §1

[3] = tested on: COLO-684 (Endometrial Carcinoma); assay: as above
In short: as §1

[4] = tested on: Caov-3 (Ovarian Carcinoma); assay: as above
In short: as §1

[5] = tested on: EB-3 (Burkitt's Lymphoma); assay: as above
In short: as §1

ES-2 (Ovarian Carcinoma) = assay: as above
In short: as §1

[6] = tested on: HTC-C3 (Thyroid Gland Carcinoma); assay: as above
In short: as §1

[7] = tested on: JHH-1 (Hepatocellular Carcinoma); assay: as above
In short: as §1

[8] = tested on: NKM-1 (Acute Myeloid Leukemia); assay: as above
In short: as §1

[9] = tested on: OCI-AML5 (Acute Myeloid Leukemia); assay: as above
In short: as §1

[10] = tested on: OV-90 (Ovarian Carcinoma); assay: as above
In short: as §1

[11] = tested on: OVTOKO (Ovarian Carcinoma); assay: as above
In short: as §1

[12] = tested on: PANC-02-03 (Pancreatic Carcinoma); assay: as above
In short: as §1

[13] = tested on: RMG-I (Ovarian Carcinoma); assay: as above
In short: as §1

[14] = tested on: SJRH30 (Rhabdomyosarcoma); assay: as above
In short: as §1

[15] = tested on: SNU-175 (Colorectal Carcinoma); assay: as above
In short: as §1

[16] = tested on: SW684 (Other Solid Carcinomas); assay: as above
In short: as §1

[17] = tested on: LAMA-84 (Chronic Myelogenous Leukemia); assay: combination Emax (second highest fraction inhibited in the dose matrix, 72 h); higher = more inhibition; extreme values may be limits of the assay
In short: as §1

[18] = tested on: NCI-H1155 (Non-Small Cell Lung Carcinoma); assay: as above
In short: as §1
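Wherever Bliss excess, mean over the matrix is given: after 72 h of two-drug dosing.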

| SMILES | Bliss excess [1] | Bliss excess (CHL-1 (Melanoma)) | Bliss excess [2] | Bliss excess [3] | Bliss excess [4] | Bliss excess [5] | Bliss excess (ES-2 (Ovarian Carcinoma)) | Bliss excess [6] | Bliss excess [7] | Bliss excess [8] | Bliss excess [9] | Bliss excess [10] | Bliss excess [11] | Bliss excess [12] | Bliss excess [13] | Bliss excess [14] | Bliss excess [15] | Bliss excess [16] | combination Emax [17] | combination Emax [18] |
| --- | --- | --- | --- | --- | --- | --- | --- | --- | --- | --- | --- | --- | --- | --- | --- | --- | --- | --- | --- | --- |
| CN(CCO)CC[C@H](CSc1ccccc1)Nc1ccc(S(=O)(=O)NC(=O)c2ccc(N3CCC([C@@H](O)c4ccccc4-c4ccc(Cl)cc4)CC3)cc2)cc1S(=O)(=O)C(F)(F)F [AZD4320] + C[C@@H](Nc1cc(F)cc(F)c1)c1cc(C(=O)N(C)C)cc2c(=O)cc(N3CCOCC3)oc12 [AZD8186] (first compound max 1 µM, 7x7, partner max 3 µM) | -0.0339 | 0.0322 | 0.0035 | 0.0193 | -0.019 | 0.0368 | 0.0151 | 0.0311 | -0.0258 | 0.0224 | 0.0823 | -0.0073 | 0.0019 | -0.0465 | -0.0066 | 0.0718 | -0.0233 | -0.0356 | 0.728 | 0.97 |
| CN(CCO)CC[C@H](CSc1ccccc1)Nc1ccc(S(=O)(=O)NC(=O)c2ccc(N3CCC([C@@H](O)c4ccccc4-c4ccc(Cl)cc4)CC3)cc2)cc1S(=O)(=O)C(F)(F)F [AZD4320] + Cc1cc2ncnn2cc1Nc1ncc2c(n1)n(C1CCOCC1)c(=O)n2C [AZD7648] (first compound max 1 µM, 7x7, partner max 10 µM) | -0.0057 | -0.0391 | 0.0044 | -0.0221 | -0.0199 | -0.0076 | -0.0186 | 0.0016 | -0.0576 | 0.0153 | 0.0193 | -0.055 | -0.0393 | -0.0568 | -0.0676 | -0.0072 | -0.006 | -0.0628 | 0.752 | 0.772 |
| CN(CCO)CC[C@H](CSc1ccccc1)Nc1ccc(S(=O)(=O)NC(=O)c2ccc(N3CCC([C@@H](O)c4ccccc4-c4ccc(Cl)cc4)CC3)cc2)cc1S(=O)(=O)C(F)(F)F [AZD4320] + Cn1cnc2c(F)c(Nc3ccc(Br)cc3Cl)c(C(=O)NOCCO)cc21 [Selumetinib] (first compound max 1 µM, 7x7, partner max 3 µM) | 0.0455 | -0.0218 | -0.0155 | 0.0023 | -0.0406 | -0.036 | 0.0164 | 0.069 | 0.0527 | -0.0208 | 0.0137 | 0.0304 | 0.0554 | -0.007 | -0.0401 | 0.0587 | 0.0316 | 0.0194 | 0.99 | 0.95 |
| Cc1c2c(nn1C)CSCc1cc(n(C)n1)CSc1cc(c3ccccc3c1)OCCCc1c(C(=O)O)n(C)c3c-2c(Cl)ccc13 [AZD5991] + C1CN(CCC1(C(=O)N[C@@H](CCO)C2=CC=C(C=C2)Cl)N)C3=NC=NC4=C3C=CN4 [Capivasertib] (first compound max 1 µM, 7x7, partner max 3 µM) | 0.145 | 0.0092 | -0.0081 | -0.0411 | -0.01 | -0.0013 | -0.0021 | -0.0091 | 0.0258 | -0.0335 | -0.0204 | 0.0139 | -0.0287 | -0.037 | -0.0488 | 0.0568 | 0.0213 | -0.0298 | 0.189 | 0.525 |
| Cc1c2c(nn1C)CSCc1cc(n(C)n1)CSc1cc(c3ccccc3c1)OCCCc1c(C(=O)O)n(C)c3c-2c(Cl)ccc13 [AZD5991] + C=CCn1c(=O)c2cnc(Nc3ccc(N4CCN(C)CC4)cc3)nc2n1-c1cccc(C(C)(C)O)n1 [AZD1775] (first compound max 1 µM, partner max 1 µM) | -0.0512 | -0.0218 | -0.0151 | -0.0587 | -0.0274 | -0.0242 | -0.0399 | 0.0091 | 0.03 | -0.0519 | -0.0036 | -0.0929 | 0.0474 | -0.0195 | -0.0369 | -0.0362 | -0.0185 | -0.0161 | 0.968 | 0.786 |
| Cc1c2c(nn1C)CSCc1cc(n(C)n1)CSc1cc(c3ccccc3c1)OCCCc1c(C(=O)O)n(C)c3c-2c(Cl)ccc13 [AZD5991] + CC1(C)CCC(CN2CCN(c3ccc(C(=O)NS(=O)(=O)c4ccc(NCC5CCOCC5)c([N+](=O)[O-])c4)c(Oc4cnc5[nH]ccc5c4)c3)CC2)=C(c2ccc(Cl)cc2)C1 [Venetoclax] (first compound max 1 µM, 7x7, partner max 1 µM) | 0.111 | 0.227 | 0.116 | -0.005 | 0.0262 | -0.0151 | -0.0082 | -0.0396 | 0.128 | 0.0517 | 0.0667 | -0.0303 | -0.0027 | -0.0304 | -0.0289 | 0.0289 | 0.107 | -0.0596 | 0.183 | 0.379 |
| Cc1c2c(nn1C)CSCc1cc(n(C)n1)CSc1cc(c3ccccc3c1)OCCCc1c(C(=O)O)n(C)c3c-2c(Cl)ccc13 [AZD5991] + CCN(CCO)CCCOc1ccc2c(Nc3cc(CC(=O)Nc4cccc(F)c4)[nH]n3)ncnc2c1 [AZD2811] (first compound max 1 µM, 7x7, partner max 1 µM) | 0.0922 | 0.114 | 0.0645 | 0.0271 | 0.0236 | -0.0197 | -0.0298 | 0.0318 | 0.0603 | 0.0291 | -0.0165 | 0.0136 | 0.0153 | -0.0029 | 0.0126 | 0.0922 | -0.0794 | -0.069 | 0.636 | 0.897 |
| Cc1c2c(nn1C)CSCc1cc(n(C)n1)CSc1cc(c3ccccc3c1)OCCCc1c(C(=O)O)n(C)c3c-2c(Cl)ccc13 [AZD5991] + CN(C)CCCOc1ccc(-c2ccc3ncc4c(c3c2)n(C2CCOCC2)c(=O)n4C)cn1 [AZD0156] (first compound max 1 µM, 7x7, partner max 1 µM) | -0.0338 | 0.0218 | 0.0208 | -0.0546 | 0.0036 | -0.0005 | 0.0018 | -0.0082 | 0.0048 | -0.152 | 0.0075 | -0.0068 | 0.0042 | -0.0241 | 0.0092 | 0.0026 | -0.0515 | -0.0222 | 0.177 | 0.626 |
| Cc1c2c(nn1C)CSCc1cc(n(C)n1)CSc1cc(c3ccccc3c1)OCCCc1c(C(=O)O)n(C)c3c-2c(Cl)ccc13 [AZD5991] + C[C@@H]1COCCN1C2=NC(=NC(=C2)C3(CC3)[S@](=N)(=O)C)C4=C5C=CNC5=NC=C4 [AZD6738] (first compound max 1 µM, 7x7, partner max 10 µM) | 0.0454 | 0.0789 | -0.012 | -0.0426 | 0.0293 | 0.0209 | 0.0424 | -0.0103 | 0.106 | 0.024 | -0.0011 | 0.0235 | 0.0404 | 0.0205 | 0.0575 | 0.0225 | 0.135 | 0.0472 | 0.966 | 0.849 |
| Cc1c2c(nn1C)CSCc1cc(n(C)n1)CSc1cc(c3ccccc3c1)OCCCc1c(C(=O)O)n(C)c3c-2c(Cl)ccc13 [AZD5991] + C[C@@H](Nc1cc(F)cc(F)c1)c1cc(C(=O)N(C)C)cc2c(=O)cc(N3CCOCC3)oc12 [AZD8186] (first compound max 1 µM, 7x7, partner max 3 µM) | 0.0606 | 0.0292 | -0.0081 | -0.0292 | 0.0338 | -0.0275 | -0.0108 | -0.014 | 0.0056 | -0.0247 | -0.0146 | -0.0496 | -0.0196 | -0.0327 | -0.0247 | -0.0138 | 0.0048 | -0.0553 | 0.12 | 0.33 |
| Cc1c2c(nn1C)CSCc1cc(n(C)n1)CSc1cc(c3ccccc3c1)OCCCc1c(C(=O)O)n(C)c3c-2c(Cl)ccc13 [AZD5991] + Cc1cc2ncnn2cc1Nc1ncc2c(n1)n(C1CCOCC1)c(=O)n2C [AZD7648] (first compound max 1 µM, 7x7, partner max 10 µM) | -0.0411 | 0.0317 | -0.0205 | 0.0076 | -0.0436 | -0.0379 | -0.0545 | -0.0558 | -0.0585 | -0.0265 | 0.0059 | -0.039 | -0.0238 | -0.0151 | -0.0389 | -0.0214 | -0.0125 | -0.0222 | 0.22 | 0.257 |
| C[C@@H]1COCCN1c1cc(C2([S@](C)(=N)=O)CC2)nc(-c2ccnc3[nH]ccc23)n1 [AZD6738] + O=C(c1cc(Cc2n[nH]c(=O)c3ccccc23)ccc1F)N1CCN(C(=O)C2CC2)CC1 [Olaparib] (first compound max 10 µM, 7x7, partner max 10 µM) | 0.0208 | -0.0498 | -0.0182 | -0.109 | -0.0231 | -0.0955 | -0.0136 | 0.0226 | -0.0206 | -0.0366 | -0.0071 | 0.0053 | 0.0182 | 0.0287 | 0.0255 | -0.0205 | 0.0311 | -0.0144 | 0.961 | 0.825 |
| Cc1cc2ncnn2cc1Nc1ncc2c(n1)n(C1CCOCC1)c(=O)n2C [AZD7648] + C=CCn1c(=O)c2cnc(Nc3ccc(N4CCN(C)CC4)cc3)nc2n1-c1cccc(C(C)(C)O)n1 [AZD1775] (first compound max 10 µM, partner max 1 µM) | -0.0091 | 0.014 | 0.0112 | -0.0713 | -0.0869 | -0.102 | 0.0248 | 0.0255 | 0.001 | -0.0556 | 0.0086 | -0.0163 | 0.0188 | 0.0306 | 0.02 | 0.0139 | -0.0043 | -0.017 | 0.953 | 0.485 |
| Cc1cc2ncnn2cc1Nc1ncc2c(n1)n(C1CCOCC1)c(=O)n2C [AZD7648] + CCN(CCO)CCCOc1ccc2c(Nc3cc(CC(=O)Nc4cccc(F)c4)[nH]n3)ncnc2c1 [AZD2811] (first compound max 10 µM, 7x7, partner max 1 µM) | 0.0113 | 0.0203 | 0.069 | 0.0234 | -0.0523 | -0.0338 | 0.0083 | 0.0226 | -0.0287 | 0.0545 | -0.0377 | -0.017 | -0.0011 | 0.0163 | 0.0097 | 0.0417 | 0.0136 | -0.027 | 0.336 | 0.475 |
